According to patent US20230312587A1, “PTERIDINONE COMPOUNDS AND USES THEREOF” (Vertex Pharmaceutical Incorporated, priority 2018, published 2023):

tested on: β-catenin-TCF-mediated reporter transcription activity in Colo 205 cells; assay: Colo 205 reporter assay (TCF/LEF luciferase); format: cell-based; conditions: Colo 205 TCF/LEF luciferase reporter, five hours after addition of compound; read-out: TCF reporter Colo205 IC50
In short: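 Luciferase signal from a TCF/LEF-driven reporter, stably integrated in Colo 205 colon cancer cells, was measured 5 h after compound addition.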

| IC50 [nM] | Molecule |
| --- | --- |
| < 300 | (7R)-5,7,8-triethyl-7-methyl-2-(((1-(3,4,5-trifluorobenzyl)-1H-pyrazol-4-yl)methyl)amino)-7,8-dihydropteridin-6(5H)-one [Compound 235] |

same assay, conditions: Homo sapiens, 5 h; Colo 205 TCF/LEF luciferase reporter, five hours after addition of compound; read-out: TCF reporter Colo205 IC50

| Molecule | IC50 [nM] |
| --- | --- |
| Cc1nc(N[C@H]2C[C@@H](NC(=O)Oc3cc(F)c(F)c(F)c3)C2)nc2c1NC(=O)[C@H](C)N2C [Compound 484, 3,4,5-trifluorophenyl (cis-3-(((S)-4,7,8-trimethyl-6-oxo-5,6,7,8-tetrahydropteridin-2-yl)amino)cyclobutyl)carbamate] | 1000 to 5000 |

same assay, conditions: Homo sapiens, COLO 205, 5 h, Colo 205 TCF/LEF luciferase reporter, five hours after addition of compound; read-out: TCF reporter Colo205 IC50

| Molecule | IC50 [nM] |
| --- | --- |
| Cc1nc(NCc2cnn(CC3CC4CCC3C4)c2)nc2c1NC(=O)[C@H](C)N2C (stereo partly drawn) [Compound 134, (7S)-2-(((1-(bicyclo[2.2.1]heptan-2-ylmethyl)-1H-pyrazol-4-yl)methyl)amino)-4,7,8-trimethyl-7,8-dihydropteridin-6(5H)-one] | < 300 |
| Cc1nc(NCc2cnn(Cc3cc(F)c(F)c(F)c3)c2)nc2c1NC(=O)[C@H](COC(C)(C)C)N2C [Compound 741, (S)-7-(tert-butoxymethyl)-4,8-dimethyl-2-(((1-(3,4,5-trifluorobenzyl)-1H-pyrazol-4-yl)methyl)amino)-7,8-dihydropteridin-6(5H)-one] | 300 to 1000 |
| Cc1nc(NCc2cnn(Cc3ccc(Cl)nc3)c2)nc2c1NC(=O)[C@H](C)N2C [Compound 194, (7S)-2-(((1-((6-chloropyridin-3-yl)methyl)-1H-pyrazol-4-yl)methyl)amino)-4,7,8-trimethyl-7,8-dihydropteridin-6(5H)-one] | < 300 |
| Cc1nc(NCc2cnn(Cc3cccc(C(F)(F)F)n3)c2)nc2c1NC(=O)[C@H](C)N2C [Compound 184, (7S)-4,7,8-trimethyl-2-(((1-((6-(trifluoromethyl)pyridin-2-yl)methyl)-1H-pyrazol-4-yl)methyl)amino)-7,8-dihydropteridin-6(5H)-one] | < 300 |
| Cc1nc(NC2CN(Cc3ccccc3)C2)nc2c1NC(=O)[C@H](C)N2C [Compound 244, (7S)-2-((1-benzylazetidin-3-yl)amino)-4,7,8-trimethyl-7,8-dihydropteridin-6(5H)-one] | ≥ 5000 |
| Cc1nc(NCc2cnn(C3CCc4ccc(F)cc43)c2)nc2c1NC(=O)[C@H](C)N2C (stereo partly drawn) [Compound 117, (7S)-2-(((1-(6-fluoro-2,3-dihydro-1H-inden-1-yl)-1H-pyrazol-4-yl)methyl)amino)-4,7,8-trimethyl-7,8-dihydropteridin-6(5H)-one] | < 300 |
| Cc1nc(NCc2ccc(-c3ccc(F)cc3)o2)nc2c1NC(=O)[C@H](C)N2C [Compound 40, (7S)-2-(((5-(4-Fluorophenyl)furan-2-yl)methyl)amino)-4,7,8-trimethyl-7,8-dihydropteridin-6(5H)-one] | 1000 to 5000 |
| C#Cc1cccc(OC[C@H]2C[C@@H](Nc3nc(C)c4c(n3)N(C)[C@@H](C)C(=O)N4)C2)c1 [Compound 283, (7S)-2-((cis-3-((3-ethynylphenoxy)methyl)cyclobutyl)amino)-4,7,8-trimethyl-7,8-dihydropteridin-6(5H)-one] | < 300 |
| Cc1nc(NCc2cnn(Cc3ccc(F)c(F)c3)c2)nc2c1NC(=O)[C@H](C)N2C [Compound 140, (7S)-2-(((1-(3,4-difluorobenzyl)-1H-pyrazol-4-yl)methyl)amino)-4,7,8-trimethyl-7,8-dihydropteridin-6(5H)-one] | < 300 |
| COc1ccc(Cn2cc(CNc3nc(C)c4c(n3)N(C)[C@@H](C)C(=O)N4)cn2)cn1 [Compound 197, (7S)-2-(((1-((6-methoxypyridin-3-yl)methyl)-1H-pyrazol-4-yl)methyl)amino)-4,7,8-trimethyl-7,8-dihydropteridin-6(5H)-one] | < 300 |
| Cc1nc(N[C@H]2C[C@H](Oc3ncc(F)cn3)C2)nc2c1NC(=O)[C@H](C)N2C [Compound 276, (7S)-2-((trans-3-((5-fluoropyrimidin-2-yl)oxy)cyclobutyl)amino)-4,7,8-trimethyl-7,8-dihydropteridin-6(5H)-one] | ≥ 5000 |
| Cc1nc(NCc2cnn(C[C@H](C)c3ccccc3)c2)nc2c1NC(=O)[C@H](C)N2C [Compound 90, (7S)-4,7,8-trimethyl-2-(((1-((R)-2-phenylpropyl)-1H-pyrazol-4-yl)methyl)amino)-7,8-dihydropteridin-6(5H)-one] | < 300 |

The next lines start with the values.

| IC50 [nM] | Molecule |
| --- | --- |
| < 300 | Cc1nc(N[C@H]2C[C@@H](COCc3ccc(F)cc3)C2)nc2c1NC(=O)[C@H](C)N2C [Compound 286, (7S)-2-((cis-3-(((4-fluorobenzyl)oxy)methyl)cyclobutyl)amino)-4,7,8-trimethyl-7,8-dihydropteridin-6(5H)-one] |
| 300 to 1000 | COCC1(C)C(=O)Nc2c(C)nc(N[C@H]3C[C@H](Oc4ccc(C(F)(F)F)nc4)C3)nc2N1C (relative stereo) [Compound 724, 7-(methoxymethyl)-4,7,8-trimethyl-2-((trans-3-((6-(trifluoromethyl)pyridin-3-yl)oxy)cyclobutyl)amino)-7,8-dihydropteridin-6(5H)-one] |
| < 300 | Cc1nc(NCc2cnn(Cc3ccc(F)cc3)c2)nc2c1NC(=O)[C@H](C(C)C)N2C [Compound 479, (S)-2-(((1-(4-fluorobenzyl)-1H-pyrazol-4-yl)methyl)amino)-7-isopropyl-4,8-dimethyl-7,8-dihydropteridin-6(5H)-one] |
| 1000 to 5000 | Cc1nc(N[C@H]2C[C@H](NC(=O)N(C)C3CCC(F)(F)CC3)C2)nc2c1NC(=O)[C@H](C(C)C)N2C [Compound 537, 1-(4,4-difluorocyclohexyl)-3-(trans-3-(((S)-7-isopropyl-4,8-dimethyl-6-oxo-5,6,7,8-tetrahydropteridin-2-yl)amino)cyclobutyl)-1-methylurea] |
| < 300 | [2H]C([2H])([2H])C([2H])([2H])N1C(=O)[C@H](C)N(C)c2nc(N[C@H]3C[C@H](Oc4cc(F)c(F)c(F)c4)C3)nc(C)c21 [Compound 328, (7S)-5-(ethyl-d5)-4,7,8-trimethyl-2-((trans-3-(3,4,5-trifluorophenoxy)-cyclobutyl)amino)-7,8-dihydropteridin-6(5H)-one] |
| < 300 | Cc1nc(N[C@H]2C[C@@H](COc3ccc(OC(F)(F)F)nc3)C2)nc2c1NC(=O)[C@H](C(C)C)N2C [Compound 598, (S)-7-isopropyl-4,8-dimethyl-2-((cis-3-(((6-(trifluoromethoxy)pyridin-3-yl)oxy)methyl)cyclobutyl)amino)-7,8-dihydropteridin-6(5H)-one] |
| < 300 | CO[C@H](C)[C@H]1C(=O)Nc2c(C)nc(NCc3cnn(Cc4ccc(C(F)(F)F)nc4)c3)nc2N1C [Compound 498, (S)-7-((R)-1-methoxyethyl)-4,8-dimethyl-2-(((1-((6-(trifluoromethyl)pyridin-3-yl)methyl)-1H-pyrazol-4-yl)methyl)amino)-7,8-dihydropteridin-6(5H)-one] |
| 1000 to 5000 | Cc1nc(N[C@@H]2CC[C@H](Nc3cnc(C(F)(F)F)cn3)C2)nc2c1NC(=O)[C@H](C)N2C [Compound 737, (S)-4,7,8-trimethyl-2-(((1R,3S)-3-((5-(trifluoromethyl)pyrazin-2-yl)amino)cyclopentyl)amino)-7,8-dihydropteridin-6(5H)-one] |
| < 300 | Cc1nc(N[C@H]2C[C@@H](COc3cnc(Cl)c(F)c3)C2)nc2c1NC(=O)[C@H](C)N2C [Compound 367, (7S)-2-((cis-3-(((6-chloro-5-fluoropyridin-3-yl)oxy)methyl)cyclobutyl)amino)-4,7,8-trimethyl-7,8-dihydropteridin-6(5H)-one] |
| < 300 | Cc1nc(N[C@H]2C[C@@H](Nc3ccc(OC(F)(F)F)cn3)C2)nc2c1NC(=O)[C@H](C(C)C)N2C [Compound 576, (S)-7-isopropyl-4,8-dimethyl-2-((cis-3-((5-(trifluoromethoxy)pyridin-2-yl)amino)cyclobutyl)amino)-7,8-dihydropteridin-6(5H)-one] |
| < 300 | CO[C@H](C)[C@H]1C(=O)Nc2c(C)nc(N[C@H]3C[C@H](Oc4cnc(C(F)(F)F)nc4)C3)nc2N1C [Compound 657, (S)-7-((R)—1-methoxyethyl)-4,8-dimethyl-2-((trans-3-((2-(trifluoromethyl)pyrimidin-5-yl)oxy)cyclobutyl)amino)-7,8-dihydropteridin-6(5H)-one] |
| < 300 | Cc1nc(N[C@H]2C[C@H](Oc3ccc(C(F)(F)F)cc3)C2)nc2c1NC(=O)[C@H](C)N2C [Compound 340, (7S)-4,7,8-trimethyl-2-((trans-3-(4-(trifluoromethyl)phenoxy)cyclobutyl)amino)-7,8-dihydropteridin-6(5H)-one] |
| 300 to 1000 | Cc1nc(N[C@H]2C[C@@H](Sc3ccc(C(F)(F)F)cc3)C2)nc2c1N(C)C(=O)[C@H](C)N2C [Compound 322, (7S)-4,5,7,8-tetramethyl-2-((cis-3-((4-(trifluoromethyl)phenyl)thio)cyclobutyl)amino)-7,8-dihydropteridin-6(5H)-one] |
| 1000 to 5000 | Cc1nc(N[C@@H]2CC[C@H](NC(=O)c3cc(F)c(F)c(F)c3)C2)nc2c1NC(=O)[C@H](C)N2C (mixture of isomers) [Compound 298, 3,4,5-trifluoro-N-(cis-3-(((S)-4,7,8-trimethyl-6-oxo-5,6,7,8-tetrahydropteridin-2-yl)amino)cyclopentyl)benzamide] |
| ≥ 5000 | Cc1nc(N[C@H]2C[C@H](NC(=O)Nc3ccc(F)cc3)C2)nc2c1NC(=O)[C@H](C)N2C [Compound 459, 1-(4-fluorophenyl)-3-(trans-3-(((S)-4,7,8-trimethyl-6-oxo-5,6,7,8-tetrahydropteridin-2-yl)amino)cyclobutyl)urea] |

same assay, conditions: Homo sapiens, COLO 205, 5 h, R-isomer at C2 (corresponding to C2 S-isomer); Colo 205 TCF/LEF luciferase reporter, 5 h; read-out: TCF reporter Colo205 IC50

| IC50 [nM] | Molecule |
| --- | --- |
| 300 to 1000 | CCN1C(=O)[C@@H](C)N(C(C)C)c2nc(NCc3cnn(Cc4ccc(F)cc4)c3)ncc21 [Compound I-1144] |
| ≥ 5000 | Cc1nc(NCc2cnn(Cc3ccc(F)nc3)c2)nc2c1NC(=O)[C@@H](C1CC1)N2C [Compound I-1641] |
| ≥ 5000 | CC(=O)N(Cc1cnn(Cc2ccc(C(F)(F)F)nc2)c1)c1nc(C)c2c(n1)N(C)[C@H](C)C(=O)N2 [Compound I-1640] |
